Earlier results on one sequence are cited in article PMC3357532, “Intracellular Loop 2 Peptides of the Human 5HT1a Receptor are Differential Activators of Gi” (International Journal of Peptides, 2012).

Series [1] deals with CHO cells expressing the human 5HT1aR. Particulars: peptide 10 uM; ref Hayataka et al., 1998 [49]; read-out: % Inhibition of FSK-stimulated cAMP; cited from earlier work. The text has this:
(§1) Table 2 ic2 Peptide mimic effect on [3H]8-OH-DPAT binding. All binding inhibition values are percent of control agonist (ag.) bound. The upper portion of the table is for peptides nearer the C-terminus, including P11 from Thiagaraj et al., 2007 [53]. These peptides decreased the specific high affinity binding of 5HT1aR agonist [^3H]-8-OH-DPAT by 50% at the given concentration. The lower portion | column: [cAMP] (SEM) || Table 3 ic3 Peptide mimic coupling and signal transduction data. Summary of data generated for all ic3 experiments with P12 and P13. P1 is included as a reference, from Hayataka et al., 1998 [49]. Nominal values for control agonist binding were 400 fmoles/mg protein. | column: % Inhibition of FSK-stimulated cAMP

Series [2] concerns Gi in H5-HT1aR membranes from transfected CHO cells. As to conditions: peptide 1 uM; ref Hayataka et al., 1998 [49]; cited from earlier work.
Text: as §1, with “GTP Incorp.” for “[cAMP]”, “[35S]-γ-S-GTP incorporation% above conro” for “% Inhibition of FSK-stimulated cAMP”

The target in a further series is T1, H5-HT1aR (Homo sapiens, UniProt P08908).
T1 construct: expressed in transfected cells; host or cells: CHO cells (Chinese hamster ovary), crude membranes
T1 sequence (P08908 1-422): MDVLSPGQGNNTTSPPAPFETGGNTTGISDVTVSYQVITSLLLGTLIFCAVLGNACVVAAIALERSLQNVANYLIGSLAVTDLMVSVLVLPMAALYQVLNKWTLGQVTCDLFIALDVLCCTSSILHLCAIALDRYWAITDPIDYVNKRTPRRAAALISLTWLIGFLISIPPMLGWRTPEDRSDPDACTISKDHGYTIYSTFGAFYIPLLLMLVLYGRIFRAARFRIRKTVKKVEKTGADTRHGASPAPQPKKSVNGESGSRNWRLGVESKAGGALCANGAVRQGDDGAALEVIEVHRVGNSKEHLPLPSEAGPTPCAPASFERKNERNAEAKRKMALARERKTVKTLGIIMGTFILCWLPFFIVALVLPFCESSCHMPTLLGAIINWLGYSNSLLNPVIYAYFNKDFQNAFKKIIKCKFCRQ
Particulars: ref Hayataka et al., 1998 [49], cited from earlier work.
Text: as §1, with “Conc. (uM); % cont. ag, bound,” for “[cAMP]”, “Agonist (%) inhibition” for “% Inhibition of FSK-stimulated cAMP”

Take IFRAARFRIRKTVKK [P1*]: the inhibition in series [1] is 10%; on H5-HT1aR (peptide 3 uM, read-out: Agonist (%) inhibition), 50%. Further, the “[35S]-γ-S-GTP incorporation% above conro” value in series [2] is given as 30%. For the same sequence, the IC50 with H5-HT1aR ([3H]8-OH-DPAT, read-out: Agonist (%) inhibition: concentration giving 50% (IC50)) was 3 µM.
